Earlier results as cited in US20090265114A1, “Influenza virus neuraminidase crystal structure and their use thereof” (priority 2006, published 2009).

Legend:
[1] = tested on: Group-1 NAs with His-274->Tyr
[2] = tested on: Group-2 NAs with His-274->Tyr
[3] = tested on: Group-1 enzymes with Arg-292->Lys; conditions: Group-1 enzymes compared with Group-2 NAs

Compound: CCOC(=O)C1=C[C@@H](OC(CC)CC)[C@H](NC(C)=O)[C@@H](N)C1 [oseltamivir]
- resistance against oseltamivir caused by the mutation His-274->Tyr [1]: high resistance
- effect of the mutation His-274->Tyr on resistance against oseltamivir [2]: little effect
- effect of the mutation Arg-292->Lys on oseltamivir resistance [3]: smaller effect
